What was measured:
Format in all cases: physicochemical
[1] = Cyclisation to the 6-oxomorpholine ring-closed form in DMSO-d6/TFA, monitored by 1H NMR; conditions: 30% aqueous disodium salt in DMSO-d6/TFA 80:20 w/w, ambient temperature
Procedure: A 30% aqueous solution of disodium threonine diacetate (129 mg) was mixed well with a DMSO-d6/TFA solution (2761 mg, 80:20 w/w) and changes in the obtained mixture were monitored by ^1H NMR at ambient temperature. The steady state was reached after 40 minutes with a conversion of 90% of THDA to cyclic-THDA.
A 30% aqueous solution of disodium serine diacetate (136 mg) was mixed well with a DMSO-d6/TFA solution (2911 mg, 80:20 w/w) and changes in the obtained mixture were monitored by ^1H NMR at ambient temperature. The steady state was reached after 100 minutes with a conversion of 43% of SerDA to cyclic-SerDA. The above experiments support that THDA can be used in applications that relate to dissolving carbonate or sequestering iron, such as use in the oil field (e.g. dissolving CaCO3 and controlling iron in subterranean treatment), use in a feed, food or micronutrient composition (e.g. complexing iron and calcium for delivery to growing substrates), use in detergents and water treatments (e.g. sequestering calcium from water to soften water and sequestering iron present in stains), and many more uses.

[2] = Potentiometric titration with FeCl3, iron total sequestering value (Fe-TSV)
Description: Potentiometric titration of THDA with FeCl3 at pH 3-4 and 11.5 gave the iron total sequestering values (Fe-TSV) of 37.8 and 27.8%, respectively. […] All Fe(III) is bound by THDA at pH 3-4.

[3] = Dissolving insoluble calcium salts (CaCO3 stirred with THDA.Na3 solution, calcium in filtrate by ICP)
Procedure: A mixture of CaCO3 (1.26 g, […]), 37.8 wt % THDA.Na3 in water (15 g, 18.8 mM), and water (45 g) was vigorously stirred for 6 h. The experiment was performed at room temperature and at 50° C. Samples (1 ml) were taken from the mixture every 0.5 h and filtered through a 0.45 μm filter. The concentration of calcium in the filtered samples was determined using the ICP method.

Row | Structure (SMILES) | conversion to cyclic form at steady state [1] | time to reach steady state of cyclisation [1] | iron total sequestering value (Fe-TSV) ([2]; pH 3-4) | iron total sequestering value (Fe-TSV) ([2]; pH 11.5) | speed of CaCO3 dissolution at 50° C. versus room temperature ([3]; 50° C.) | dissolution of CaCO3 ([3]; CaCO3 12.6 mM, THDA.Na3 18.8 mM in water, stirred 6 h, room temperature and 50° C.)
1 | O=C(O)CN(CC(=O)O)[C@@H](CO)C(=O)O [SerDA, serine-N,N-diacetic acid, reference compound] | 43% | 100 min |  |  |  | 
2 | C[C@@H](O)[C@@H](C(=O)O)N(CC(=O)O)CC(=O)O [THDA, threonine-N,N-diacetic acid] | 90% | 40 min | 37.8% | 27.8% |  | 
3 | C[C@@H](O)[C@@H](C(=O)O)N(CC(=O)O)CC(=O)O.[Na+].[Na+].[Na+] [THDA.Na3, Trisodium Threonine Diacetate] |  |  |  |  | noticeably faster | significant amount
